Results on eight compounds are retold here after PubChem BioAssay (NCI).

Values joined by “and” are separate entries in the source; they are usually repeats but may differ in a detail not shown here. Equal entries are not always repeated.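 In this assay, cells in 96-well plates receive the compound at five concentrations for 48 hours. Endpoints are linearly interpolated between the surrounding concentrations. GI50 is the concentration that inhibits growth by half. TGI marks complete inhibition of growth.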

Among the test systems are HCT-15 colon; NCI-H23 lung; IGROV1 ovarian; SR leukemia; UO-31 renal; OVCAR-4 ovarian; HS 578T breast; MOLT-4 leukemia; BT-549 breast; OVCAR-8 ovarian.
What all share (test): NCI anticancer screen, dose series, 48 h

`CS(=O)(=O)CCNCc1ccc(-c2ccc3ncnc(Nc4ccc(OCc5ccccc5)c(Br)c4)c3c2)o1`: the GI50 in the assay on HCT-15 colon is 4.51 µM; in the assay on NCI-H23 lung, 10.5 µM; with IGROV1 ovarian, 4.94 µM; with SR leukemia it was 8.49 µM; in the assay on UO-31 renal, 3.64 µM; with OVCAR-4 ovarian, 15.5 µM. Further, the GI50 in the assay on HS 578T breast is 5.08 µM; in the assay on MOLT-4 leukemia, 9.2 µM; in the assay on BT-549 breast it was 8.89 µM; in the assay with OVCAR-8 ovarian, 9.62 µM. In addition, the TGI with HCT-15 colon was 14.7 µM; in the assay on NCI-H23 lung, above 25 µM; in the assay with IGROV1 ovarian, above 25 µM; with SR leukemia it was above 23.3 µM; with UO-31 renal, 11.5 µM; with OVCAR-4 ovarian it was above 25 µM. The TGI with HS 578T breast is 15.9 µM; in the assay with MOLT-4 leukemia, above 25 µM; in the assay on BT-549 breast it was above 25 µM; in the assay with OVCAR-8 ovarian it was above 25 µM.

For `CNC/C(Cl)=N/S(=O)(=O)c1ccc(C)cc1`, the TGI in the assay with HCT-15 colon was above 100 µM; in the assay on NCI-H23 lung it was 26.2 µM; with IGROV1 ovarian it was 91.2 µM; in the assay with SR leukemia, 34.9 µM; in the assay with UO-31 renal, 36.6 µM; with OVCAR-4 ovarian it was 25.4 µM. The TGI is above 100 µM in the assay on HS 578T breast, 51.7 µM in the assay on BT-549 breast and above 100 µM in the assay with OVCAR-8 ovarian.

`Cc1cc(=O)oc2c(C)c(O)ccc12`: the TGI in the assay with HCT-15 colon, in the assay on NCI-H23 lung, in the assay on IGROV1 ovarian, in the assay on SR leukemia, in the assay with UO-31 renal and in the assay on OVCAR-4 ovarian was above 100 µM in each case. Besides, the TGI in the assay with HS 578T breast, in the assay on MOLT-4 leukemia, with BT-549 breast and with OVCAR-8 ovarian was above 100 µM throughout.

Take `COc1cccc(/C=C/[N+](=O)[O-])c1`: the GI50 is 2.17 µM in the assay on HCT-15 colon; 3.21 µM in the assay on NCI-H23 lung; 2.4 µM in the assay on IGROV1 ovarian; 1.64 µM in the assay with SR leukemia; 1.68 µM with UO-31 renal; 15.5 µM with OVCAR-4 ovarian. Moreover, the GI50 was 15.8 µM in the assay on HS 578T breast, 3.06 µM in the assay on MOLT-4 leukemia, 1.86 µM in the assay with BT-549 breast and 10.7 µM with OVCAR-8 ovarian. Moreover, the TGI stood at 6.18 µM in the assay with HCT-15 colon; 12.6 µM in the assay on NCI-H23 lung; 6.51 µM in the assay on IGROV1 ovarian; 5.18 µM with SR leukemia; 3.4 µM in the assay on UO-31 renal; 36.9 µM in the assay with OVCAR-4 ovarian. The TGI was found to be 55.5 µM in the assay on HS 578T breast, 11.9 µM in the assay with MOLT-4 leukemia, 3.99 µM in the assay on BT-549 breast and 25.1 µM in the assay with OVCAR-8 ovarian.

For `Cc1ccc(Cc2cnc(NC(=O)/C=C/c3cccc(C)c3)s2)cc1`, the GI50 with HCT-15 colon is 0.049 µM; in the assay on NCI-H23 lung, 0.322 µM; with IGROV1 ovarian, 0.334 µM; with SR leukemia, 0.0449 µM; in the assay with UO-31 renal, 0.395 µM; with OVCAR-4 ovarian, 0.842 µM. The GI50 with HS 578T breast was 0.212 µM; with MOLT-4 leukemia it was 0.261 µM; with BT-549 breast it was 0.256 µM; in the assay on OVCAR-8 ovarian it was 0.447 µM. For the same compound, the TGI was above 96 µM in the assay with HCT-15 colon; above 50.1 µM in the assay on NCI-H23 lung; 15.5 µM with IGROV1 ovarian; 2.23 µM in the assay with SR leukemia; 9.54 µM in the assay on UO-31 renal; 4.71 µM in the assay on OVCAR-4 ovarian. Further, the TGI was 5.86 µM with HS 578T breast, above 100 µM in the assay with MOLT-4 leukemia, above 27.4 µM in the assay with BT-549 breast and above 44.5 µM with OVCAR-8 ovarian.

In the case of `C=C(CN1CCN(c2cccc(C(F)(F)F)n2)CC1)c1ccc(C(=O)Nc2ccccc2N)cc1`, the GI50 in the assay on HCT-15 colon is 0.918 µM and 0.404 µM; in the assay with NCI-H23 lung it was 14.1 µM and 1.8 µM; with IGROV1 ovarian, 2.01 µM and 0.365 µM; in the assay on SR leukemia it was above 39.1 µM; in the assay with UO-31 renal it was 2.76 µM and 0.465 µM; in the assay on OVCAR-4 ovarian, 8.37 µM and 1.41 µM. The GI50 with HS 578T breast was 0.448 µM and 0.194 µM; with MOLT-4 leukemia it was 0.855 µM and 0.478 µM; in the assay on BT-549 breast, 0.918 µM and 0.34 µM; in the assay with OVCAR-8 ovarian, 4.25 µM and 1.09 µM. The TGI is above 100 µM in the assay on HCT-15 colon; above 100 µM with NCI-H23 lung; 26.9 µM and 7.29 µM with IGROV1 ovarian; above 100 µM in the assay with SR leukemia; 72.2 µM and > 76.6 µM with UO-31 renal; above 100 µM in the assay on OVCAR-4 ovarian. The TGI in the assay with MOLT-4 leukemia is above 100 µM; with BT-549 breast, 88.4 µM and > 100 µM; in the assay with OVCAR-8 ovarian it was 55.4 µM and > 79 µM.

Turning to `COc1cc2c(cc1OC)-c1ccc3cc4c(cc3c1N(CCCn1ccnc1)C2)OCO4`, the GI50 in the assay with HCT-15 colon was 58.3 µM; in the assay on NCI-H23 lung it was 2.23 µM; in the assay on IGROV1 ovarian, 3.61 µM; in the assay with SR leukemia, 0.579 µM; in the assay on UO-31 renal, 16.7 µM; in the assay with OVCAR-4 ovarian it was 4.81 µM. The GI50 is 5.75 µM in the assay on HS 578T breast, 0.467 µM in the assay with MOLT-4 leukemia, 3.78 µM in the assay with BT-549 breast and 5.49 µM in the assay with OVCAR-8 ovarian. Also, the TGI was above 100 µM in the assay on HCT-15 colon; 21.3 µM in the assay with NCI-H23 lung; 29.9 µM with IGROV1 ovarian; above 100 µM in the assay with SR leukemia; 60.5 µM in the assay with UO-31 renal; 31.9 µM in the assay on OVCAR-4 ovarian. Moreover, the TGI in the assay with HS 578T breast is 40 µM; in the assay with MOLT-4 leukemia it was above 100 µM; with BT-549 breast it was 17.9 µM; with OVCAR-8 ovarian, 43.6 µM.

Regarding `CCC(=O)Nc1ccccc1C#C/C=C\C#Cc1ccccc1SC`, the GI50 with HCT-15 colon is 4.27 µM; with NCI-H23 lung it was 22.7 µM; in the assay on IGROV1 ovarian, 0.738 µM; in the assay with SR leukemia it was 1.68 µM; in the assay on UO-31 renal, 0.838 µM; with OVCAR-4 ovarian, 30.1 µM. The GI50 in the assay with HS 578T breast was 17.1 µM; with MOLT-4 leukemia, 4.46 µM; in the assay on BT-549 breast it was 14.7 µM; in the assay on OVCAR-8 ovarian, 12.3 µM. Further, the TGI is above 100 µM in the assay with HCT-15 colon; above 100 µM in the assay on NCI-H23 lung; 37.3 µM with IGROV1 ovarian; above 100 µM in the assay on SR leukemia; 28.6 µM in the assay on UO-31 renal; above 100 µM in the assay with OVCAR-4 ovarian. The TGI in the assay on HS 578T breast, in the assay on MOLT-4 leukemia, in the assay on BT-549 breast and in the assay with OVCAR-8 ovarian was above 100 µM throughout.
